Marks after values point to notes of the source that are not given here.

For test [1], the system named is N-STZ-1.5 rats. The test is described as follows: Oral glucose tolerance test using N-STZ-1.5 rats (glucose-lowering effects and insulinotropic action). Particulars: 3 mg/kg body weight oral, 1 hr before glucose loading 1.5 g/kg, male N-STZ-1.5 rats, n=6; for blood glucose decrease rate (%): glucose AUC (0-60 min) vs control group; for insulin increase rate (fold): insulin AUC (0-60 min) test group/control group. Type of test: in vivo, rat. Here is the method: The glucose-lowering effects and insulinotropic action of the compound of the present invention were evaluated by an oral glucose tolerance test using N-STZ-1.5 rats.
Streptozotocin (120 mg/kg) was subcutaneously administered to 1 or 2 days-old male Wistar Kyoto rats to prepare type 2 diabetic model N-STZ-1.5 rats. The rats were allowed free access to standard laboratory chow diet (CE-2, CLEA Japan, Inc.).
Male N-STZ-1.5 rats (25-week-old) were fasted for 15-17 hr, and the body weight was measured. Heparin (Ajinomoto Co., Inc.) as an anticoagulant and aprotinin (SIGMA) as a protease inhibitor were added, blood samples were collected from tail vein. The blood was centrifuged, the concentrations of glucose and triglyceride in plasma were measured, and the rats were divided into each group (n=6) based on these parameters. A 0.5% methylcellulose (control group) or a 0.5% methylcellulose suspension containing a test compound (3 mg/kg body weight) was orally administered to the rats at 5 ml/kg and, 1 hr after the administration, glucose solution (Otsuka Pharmaceutical Co., Ltd.) was orally administered at 1.5 g/7.5 ml/kg. Immediately before (0 min value) and 10, 30 and 60 min after the glucose loading, blood was drawn from the tail vein, centrifuged, and the concentrations of glucose and insulin in plasma were measured. The glucose and triglyceride concentrations were measured by automatic analysis apparatus 7180 (Hitachi, Ltd.), and the insulin concentration was measured by rat insulin radioimmunoassay kit (MIllipore). The area under glucose curve (AUC) and insulin AUC were calculated using the following formulas, and the blood glucose decrease rate (%) and insulin increase rate (fold) were calculated by the following formulas from the obtained AUCs. A statistical significant difference from the control group was analyzed by the Dunnett's test or Steel's test.
Glucose AUC (0-60 Min): {(0 min glucose in plasma)+(10 min glucose in plasma)}×10/2+{(10 min glucose in plasma)+(30 min glucose in plasma)}×20/2+{(30 min glucose in plasma)+(60 min glucose in plasma)}×30/2 insulin AUC (0-60 Min): {(0 min insulin in plasma)+(10 min insulin in plasma)}×10/2+{(10 min insulin in plasma)+(30 min insulin in plasma)}×20/2+{(30 min insulin in plasma)+(60 min insulin in plasma)}×30/2 Blood Glucose Decrease Rate (%): [(test compound administration group glucose AUC/control group glucose AUC)−1]×100 insulin Increase Rate (Fold):
test compound administration group insulin AUC/control group insulin AUC

Test [2] has as its target T1, human GPR40 (Homo sapiens, UniProt O14842).
T1 construct: expressed in transfected cells
The test can be described thus: Evaluation of human GPR40 agonist activity with increase in intracellular Ca2+ concentration as an index (FLIPR). Type of test: cell-based. Particulars: test compound 1 μM; CHO(dhfr−) cells stably expressing human GPR40; 100% = 10 μM compound of Example 153, 0% = DMSO. The gist of the method: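 CHO(dhfr−) cells stably expressing full-length human GPR40 were loaded with Ca2+ probe for 1 h at room temperature, then given test compound at 1 μM final. Fluorescence was followed on FLIPR, with activity scaled to a reference agonist at 10 μM (100%) and DMSO (0%).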

T1 sequence (O14842 whole entry): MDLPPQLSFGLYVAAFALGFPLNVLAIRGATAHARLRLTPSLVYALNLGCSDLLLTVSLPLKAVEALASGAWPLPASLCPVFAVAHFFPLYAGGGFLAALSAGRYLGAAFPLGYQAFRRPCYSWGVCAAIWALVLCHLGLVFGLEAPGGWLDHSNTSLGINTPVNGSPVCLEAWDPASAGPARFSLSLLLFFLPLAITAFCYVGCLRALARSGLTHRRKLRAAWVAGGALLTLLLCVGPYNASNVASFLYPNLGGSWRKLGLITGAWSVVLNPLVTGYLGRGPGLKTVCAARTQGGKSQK

As for `COc1ccc(C(=O)N(CC(C)(C)C)c2ccccn2)c(N2CCC(COc3cc([C@@H](CC(=O)O)C4CC4)ccn3)CC2)c1` [Example 247, (3S)-3-cyclopropyl-3-(2-((1-(2-((2,2-dimethylpropyl)(pyridin-2-yl)carbamoyl)-5-methoxyphenyl)piperidin-4-yl)methoxy)pyridin-4-yl)propanoic acid], in test [1], the “blood glucose decrease rate (%)” value was 41.5^$ % and the “insulin increase rate (fold)” value is 2.0** fold. The compound further showed an activation at 1 µM in test [2] of 102%. Consider `COc1ccc(C(=O)N(CC(C)(C)C)c2ncccn2)c(N2CCC(COc3cc(C(CC(=O)O)C4CC4)ccn3)CC2)c1` (centres unmarked) [Example 184, 3-cyclopropyl-3-(2-((1-(2-((2,2-dimethylpropyl)(pyrimidin-2-yl)carbamoyl)-5-methoxyphenyl)piperidin-4-yl)methoxy)pyridin-4-yl)propanoic acid], for which, in test [1], the “blood glucose decrease rate (%)” value is on record as 27.9^$ % and the “insulin increase rate (fold)” value turned out to be 1.4 fold. `COc1ccc(C(=O)N(CC(C)(C)F)c2cc(C)ccn2)c(N2CCC(COc3cc(C(CC(=O)O)C4CC4)ccn3)CC2)c1` (centres unmarked) [Example 185, 3-cyclopropyl-3-(2-((1-(2-((2-fluoro-2-methylpropyl)(4-methylpyridin-2-yl)carbamoyl)-5-methoxyphenyl)piperidin-4-yl)methoxy)pyridin-4-yl)propanoic acid]: in test [1], the “blood glucose decrease rate (%)” value is on record as 30.8^$ % and the “insulin increase rate (fold)” value is 1.6 fold. For the compound `COc1ccc(C(=O)N(Cc2ccccn2)CC(C)(C)C)c(N2CCC(COc3cc(C(CC(=O)O)C4CC4)ccn3)CC2)c1` (centres unmarked) [Example 181, 3-cyclopropyl-3-(2-((1-(2-((2,2-dimethylpropyl)(pyridin-2-ylmethyl)carbamoyl)-5-methoxyphenyl)piperidin-4-yl)methoxy)pyridin-4-yl)propanoic acid], the activation at 1 µM in test [2] was 91%. The same measure, in the same setting: for `COc1ccc(C(=O)N(CC(C)(C)C)c2cc(C)ncn2)c(N2CCC(COc3cc(C(CC(=O)O)C4CC4)ccn3)CC2)c1` (centres unmarked) [Example 230, 3-cyclopropyl-3-(2-((1-(2-((2,2-dimethylpropyl) (6-methylpyrimidin-4-yl)carbamoyl)-5-methoxyphenyl)piperidin-4-yl)methoxy)pyridin-4-yl)propanoic acid] the value was 98%; for `CC(C)(C)CN(C(=O)c1ccc(Cl)nc1N1CCC(COc2cccc(C(CC(=O)O)C3CC3)c2)CC1)c1ccccn1` (centres unmarked) [Example 59, 3-(3-((1-(6-chloro-3-((2,2-dimethylpropyl)(pyridin-2-yl)carbamoyl)pyridin-2-yl)piperidin-4-yl)methoxy)phenyl)-3-cyclopropylpropanoic acid], 73%. Still for that read-out and setting: for `COc1ccc(C(=O)N(CC(C)(C)OC(C)C)c2ccccn2)c(N2CCC(COc3cc(C(CC(=O)O)C4CC4)ccn3)CC2)c1` (centres unmarked) [Example 160, 3-cyclopropyl-3-(2-((1-(2-((2-isopropoxy-2-methylpropyl)(pyridin-2-yl)carbamoyl)-5-methoxyphenyl)piperidin-4-yl)methoxy)pyridin-4-yl)propanoic acid] the value was 97%; for `COc1ccc(C(=O)N(CC(C)(C)C)c2cncc(Cl)n2)c(N2CCC(COc3cc(C(CC(=O)O)C4CC4)ccn3)CC2)c1` (centres unmarked) [Example 180, 3-(2-((1-(2-((6-chloropyrazin-2-yl)(2,2-dimethylpropyl)carbamoyl)-5-methoxyphenyl)piperidin-4-yl)methoxy)pyridin-4-yl)-3-cyclopropylpropanoic acid], 105%. In turn, `COc1ccc(C(=O)N2CCOCC2Cc2ccccc2)c(N2CCC(COc3cc(C(CC(=O)O)C4CC4)ccn3)CC2)c1` (centres unmarked) [Example 201, 3-(2-((1-(2-((3-benzylmorpholin-4-yl)carbonyl)-5-methoxyphenyl)piperidin-4-yl)methoxy)pyridin-4-yl)-3-cyclopropylpropanoic acid] came in with an activation at 1 µM in test [2] of 92%. On the same count and under the same terms, the value for `COc1ccc(C(=O)N(CC(F)(F)F)c2cccc(C)n2)c(N2CCC(COc3cc(C(CC(=O)O)C4CC4)ccn3)CC2)c1` (centres unmarked) [Example 143, 3-cyclopropyl-3-(2-((1-(5-methoxy-2-((6-methylpyridin-2-yl)(2,2,2-trifluoroethyl)carbamoyl)phenyl)piperidin-4-yl)methoxy)pyridin-4-yl)propanoic acid] was 102%; that for `CCOC(CC(=O)O)c1cccc(OCC2CCN(c3cc(OC)ccc3C(=O)N(CC(C)(C)C)c3cccc(C)n3)CC2)c1` (centres unmarked) [Example 270, 3-(3-((1-(2-((2,2-dimethylpropyl)(6-methylpyridin-2-yl)carbamoyl)-5-methoxyphenyl)piperidin-4-yl)methoxy)phenyl)-3-ethoxypropanoic acid] was 95%. The compound `COc1cc(N2CCC(COc3cc(C(CC(=O)O)C4CC4)ccn3)CC2)c(C(=O)N(CC(C)(C)C)c2cccc(C)n2)cn1` (centres unmarked) [Example 255, 3-cyclopropyl-3-(2-((1-(5-((2,2-dimethylpropyl)(6-methylpyridin-2-yl)carbamoyl)-2-methoxypyridin-4-yl)piperidin-4-yl)methoxy)pyridin-4-yl)propanoic acid] showed an activation at 1 µM in test [2] of 103%. Consider `COc1ccc(C(=O)N(CCC#N)c2ccccc2)c(N2CCC(COc3cccc(C(CC(=O)O)C4CC4)c3)CC2)c1` (centres unmarked) [Example 6, 3-(3-((1-(2-((2-cyanoethyl)(phenyl)carbamoyl)-5-methoxyphenyl)piperidin-4-yl)methoxy)phenyl)-3-cyclopropylpropanoic acid], for which the activation at 1 µM in test [2] was 73%. On the same count and under the same terms, the value for `COCC(C)(C)CN(C(=O)c1ccc(OC)cc1N1CCC(COc2cc(C(CC(=O)O)C3CC3)ccn2)CC1)c1ccccn1` (centres unmarked) [Example 155, 3-cyclopropyl-3-(2-((1-(5-methoxy-2-((3-methoxy-2,2-dimethylpropyl)(pyridin-2-yl)carbamoyl)phenyl)piperidin-4-yl)methoxy)pyridin-4-yl)propanoic acid] was 96%; that for `COCC(CC(=O)O)c1cccc(OCC2CCN(c3cc(OC)ccc3C(=O)N(CC(C)(C)C)c3cccc(C)n3)CC2)c1` (centres unmarked) [Example 276, 3-(3-((1-(2-((2,2-dimethylpropyl) (6-methylpyridin-2-yl)carbamoyl)-5-methoxyphenyl)piperidin-4-yl)methoxy)phenyl)-4-methoxybutanoic acid] was 96%. The same measure, in the same setting: for `COc1ccc(C(=O)N(CC2(F)CC2)c2ccccn2)c(N2CCC(COc3cc(C(CC(=O)O)C4CC4)ccn3)CC2)c1` (centres unmarked) [Example 144, 3-cyclopropyl-3-(2-((1-(2-(((1-fluorocyclopropyl)methyl)(pyridin-2-yl)carbamoyl)-5-methoxyphenyl)piperidin-4-yl)methoxy)pyridin-4-yl)propanoic acid] the value was 79%; for `COc1ccc(C(=O)N(CC(C)(C)C)c2ccccn2)c(N2CCC(COc3cccc(C(CC(=O)O)C4CC4)c3)C(F)(F)C2)c1` [Example 281, (3S)-cyclopropyl-3-(3-((1-(2-((2,2-dimethylpropyl)-(pyridin-2-yl)carbamoyl)-5-methoxyphenyl)-3,3-difluoropiperidin-4-yl)methoxy)phenyl)-propanoic acid], 92%.

On to `COc1ccc(C(=O)N(CC(C)(C)C)c2nccc(C)n2)c(N2CCC(COc3cc(C(CC(=O)O)C4CC4)ccn3)CC2)c1` (centres unmarked) [Example 173, 3-cyclopropyl-3-(2-((1-(2-((2,2-dimethylpropyl)(4-methylpyrimidin-2-yl)carbamoyl)-5-methoxyphenyl)piperidin-4-yl)methoxy)pyridin-4-yl)propanoic acid], for which the activation at 1 µM in test [2] came to 103%. Same read-out and setting: for `CCc1ccc(C(=O)N(CC(C)(C)C)c2ccccn2)c(N2CCC(COc3cccc(C(CC(=O)O)C4CC4)c3)CC2)c1` (centres unmarked) [Example 56, 3-cyclopropyl-3-(3-((1-(2-((2,2-dimethylpropyl)(pyridin-2-yl)carbamoyl)-5-ethylphenyl)piperidin-4-yl)methoxy)phenyl)propanoic acid] the value was 83%.

For the origin of these results see patent US9776962B2, “Aromatic compounds with GPR40 agonistic activity” (TAKEDA PHARMACEUTICAL COMPANY LIMITED, priority 2013, dated 2017).
